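Cells were grown in 96-well plates and exposed to each compound for 48 hours at five concentrations; endpoints were interpolated linearly between bracketing concentrations, or set to the highest concentration if not reached. The concentration for 50% growth inhibition is given as GI50.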 Activity calls are given as the source filed them. Cut-off read from the data, not from the text of the source: active = GI50 up to about 1.1 µM and inactive = higher.
Tests used:
Assay in all cases: NCI tumour cell line growth inhibition, 48 h
NCI-H226 = test system: NCI-H226
OVCAR-4 = test system: OVCAR-4
CAKI-1 = test system: CAKI-1
UO-31 = test system: UO-31
SF-539 = test system: SF-539
SF-268 = test system: SF-268
A498 = test system: A498
OVCAR-3 = test system: OVCAR-3
SK-MEL-5 = test system: SK-MEL-5
NCI-H23 = test system: NCI-H23
SK-MEL-2 = test system: SK-MEL-2
NCI/ADR-RES = test system: NCI/ADR-RES
MCF7 = test system: MCF7
IGROV-1 = test system: IGROV-1
SN12C = test system: SN12C
SF-295 = test system: SF-295
M14 = test system: M14
RPMI-8226 = test system: RPMI-8226
UACC-257 = test system: UACC-257
TK-10 = test system: TK-10
HOP-62 = test system: HOP-62
ACHN = test system: ACHN
786-0 = test system: 786-0
Hs-578T = test system: Hs-578T
CCRF-CEM = test system: CCRF-CEM
OVCAR-5 = test system: OVCAR-5
SW-620 = test system: SW-620
EKVX = test system: EKVX
HT-29 = test system: HT-29
BT-549 = test system: BT-549
OVCAR-8 = test system: OVCAR-8
SK-MEL-28 = test system: SK-MEL-28
SNB-19 = test system: SNB-19
LOX IMVI = test system: LOX IMVI
SK-OV-3 = test system: SK-OV-3
KM12 = test system: KM12
A549 = test system: A549
HOP-92 = test system: HOP-92
HCC 2998 = test system: HCC 2998
DU-145 = test system: DU-145
T47D = test system: T47D
COLO 205 = test system: COLO 205
MOLT-4 = test system: MOLT-4
SNB-75 = test system: SNB-75
K562 = test system: K562
UACC-62 = test system: UACC-62
MDA-MB-435 = test system: MDA-MB-435
MDA-MB-231 = test system: MDA-MB-231
HCT-116 = test system: HCT-116
NCI-H522 = test system: NCI-H522
HCT-15 = test system: HCT-15
U-251 = test system: U-251
PC-3 = test system: PC-3
RXF 393 = test system: RXF 393
NCI-H460 = test system: NCI-H460
HL-60 = test system: HL-60
Malme-3M = test system: Malme-3M
MDA-N = test system: MDA-N
SR = test system: SR

**Q.** For `COc1ccc(-[n+]2nc(S(=O)(=O)O)c(/C=C/c3ccc(N(C)C)cc3)cc2C#N)cc1`, which GI50 (NCI-H226) is on record?
**A.** > 100 µM (inactive)

**Q.** And the GI50 (OVCAR-4)?
**A.** > 100 µM (inactive)

**Q.** And the GI50 (CAKI-1)?
**A.** > 100 µM (inactive)

**Q.** What about the GI50 (UO-31) of the same compound?
**A.** > 100 µM (inactive)

**Q.** What about the GI50 (SF-539) of the same compound?
**A.** > 100 µM (inactive)

**Q.** What about the GI50 (SF-268) of the same compound?
**A.** > 100 µM (inactive)

**Q.** And the GI50 (A498)?
**A.** > 100 µM (inactive)

**Q.** What about the GI50 (OVCAR-3) of the same compound?
**A.** > 100 µM (inactive)

**Q.** And the GI50 (SK-MEL-5)?
**A.** > 100 µM (inactive)

**Q.** And the GI50 (NCI-H23)?
**A.** > 100 µM (inactive)

**Q.** What about the GI50 (SK-MEL-2) of the same compound?
**A.** > 100 µM (inactive)

**Q.** And the GI50 (NCI/ADR-RES)?
**A.** > 100 µM (inactive)

**Q.** What about the GI50 (MCF7) of the same compound?
**A.** > 100 µM (inactive)

**Q.** What about the GI50 (IGROV-1) of the same compound?
**A.** > 100 µM (inactive)

**Q.** And the GI50 (SN12C)?
**A.** > 100 µM (inactive)

**Q.** And the GI50 (SF-295)?
**A.** > 100 µM (inactive)

**Q.** And the GI50 (M14)?
**A.** > 100 µM (inactive)

**Q.** What about the GI50 (RPMI-8226) of the same compound?
**A.** > 100 µM (inactive)

**Q.** What about the GI50 (UACC-257) of the same compound?
**A.** > 100 µM (inactive)

**Q.** What about the GI50 (TK-10) of the same compound?
**A.** > 100 µM (inactive)

**Q.** What about the GI50 (HOP-62) of the same compound?
**A.** > 100 µM (inactive)

**Q.** And the GI50 (ACHN)?
**A.** > 100 µM (inactive)

**Q.** And the GI50 (786-0)?
**A.** > 100 µM (inactive)

**Q.** And the GI50 (Hs-578T)?
**A.** > 100 µM (inactive)

**Q.** And the GI50 (CCRF-CEM)?
**A.** > 100 µM (inactive)

**Q.** What about the GI50 (OVCAR-5) of the same compound?
**A.** > 100 µM (inactive)

**Q.** What about the GI50 (SW-620) of the same compound?
**A.** > 100 µM (inactive)

**Q.** And the GI50 (EKVX)?
**A.** > 100 µM (inactive)

**Q.** What about the GI50 (HT-29) of the same compound?
**A.** > 100 µM (inactive)

**Q.** What about the GI50 (BT-549) of the same compound?
**A.** > 100 µM (inactive)

**Q.** What about the GI50 (OVCAR-8) of the same compound?
**A.** > 100 µM (inactive)

**Q.** What about the GI50 (SK-MEL-28) of the same compound?
**A.** > 100 µM (inactive)

**Q.** What about the GI50 (SNB-19) of the same compound?
**A.** > 100 µM (inactive)

**Q.** And the GI50 (LOX IMVI)?
**A.** > 100 µM (inactive)

**Q.** And the GI50 (SK-OV-3)?
**A.** > 100 µM (inactive)

**Q.** What about the GI50 (KM12) of the same compound?
**A.** > 100 µM (inactive)

**Q.** And the GI50 (A549)?
**A.** > 100 µM (inactive)

**Q.** And the GI50 (HOP-92)?
**A.** > 100 µM (inactive)

**Q.** What about the GI50 (HCC 2998) of the same compound?
**A.** > 100 µM (inactive)

**Q.** What about the GI50 (DU-145) of the same compound?
**A.** > 100 µM (inactive)

**Q.** What about the GI50 (T47D) of the same compound?
**A.** > 100 µM (inactive)

**Q.** And the GI50 (COLO 205)?
**A.** > 100 µM (inactive)

**Q.** And the GI50 (MOLT-4)?
**A.** > 100 µM (inactive)

**Q.** What about the GI50 (SNB-75) of the same compound?
**A.** > 100 µM (inactive)

**Q.** What about the GI50 (K562) of the same compound?
**A.** > 100 µM (inactive)

**Q.** And the GI50 (UACC-62)?
**A.** > 100 µM (inactive)

**Q.** And the GI50 (MDA-MB-435)?
**A.** > 100 µM (inactive)

**Q.** And the GI50 (MDA-MB-231)?
**A.** > 100 µM (inactive)

**Q.** What about the GI50 (HCT-116) of the same compound?
**A.** > 100 µM (inactive)

**Q.** And the GI50 (NCI-H522)?
**A.** > 100 µM (inactive)

**Q.** What about the GI50 (HCT-15) of the same compound?
**A.** > 100 µM

**Q.** And the GI50 (U-251)?
**A.** > 100 µM (inactive)

**Q.** And the GI50 (PC-3)?
**A.** > 100 µM (inactive)

**Q.** With `Cc1cc(S(=O)(=O)NC2=NNC(C)CN2)c(S)cc1Cl` (stereo not given) as the compound, how does the GI50 (NCI-H226) read?
**A.** 45.2 µM (inactive)

**Q.** What about the GI50 (RXF 393) of the same compound?
**A.** 50.9 µM (inactive)

**Q.** What about the GI50 (NCI-H460) of the same compound?
**A.** 54.2 µM (inactive)

**Q.** What about the GI50 (OVCAR-4) of the same compound?
**A.** 44.1 µM (inactive)

**Q.** And the GI50 (CAKI-1)?
**A.** 56.8 µM (inactive)

**Q.** What about the GI50 (UO-31) of the same compound?
**A.** 51.5 µM (inactive)

**Q.** And the GI50 (SF-539)?
**A.** 43.9 µM (inactive)

**Q.** And the GI50 (SF-268)?
**A.** 15.9 µM (inactive)

**Q.** And the GI50 (A498)?
**A.** 21.6 µM (inactive)

**Q.** What about the GI50 (OVCAR-3) of the same compound?
**A.** 53.7 µM (inactive)

**Q.** What about the GI50 (SK-MEL-5) of the same compound?
**A.** 35.1 µM (inactive)

**Q.** And the GI50 (NCI-H23)?
**A.** 48.6 µM (inactive)

**Q.** What about the GI50 (SK-MEL-2) of the same compound?
**A.** 21 µM (inactive)

**Q.** And the GI50 (NCI/ADR-RES)?
**A.** 33.4 µM (inactive)

**Q.** And the GI50 (MCF7)?
**A.** 35.8 µM (inactive)

**Q.** And the GI50 (IGROV-1)?
**A.** 23.9 µM (inactive)

**Q.** And the GI50 (SN12C)?
**A.** 80.5 µM (inactive)

**Q.** What about the GI50 (SF-295) of the same compound?
**A.** 46.3 µM (inactive)

**Q.** What about the GI50 (M14) of the same compound?
**A.** 27.7 µM (inactive)

**Q.** And the GI50 (RPMI-8226)?
**A.** 20.1 µM (inactive)

**Q.** And the GI50 (UACC-257)?
**A.** > 100 µM (inactive)

**Q.** And the GI50 (TK-10)?
**A.** > 100 µM (inactive)

**Q.** What about the GI50 (HOP-62) of the same compound?
**A.** 48.8 µM (inactive)

**Q.** What about the GI50 (ACHN) of the same compound?
**A.** 46.1 µM (inactive)

**Q.** What about the GI50 (786-0) of the same compound?
**A.** 35 µM (inactive)

**Q.** What about the GI50 (CCRF-CEM) of the same compound?
**A.** 36.9 µM (inactive)

**Q.** What about the GI50 (OVCAR-5) of the same compound?
**A.** 93.3 µM (inactive)

**Q.** What about the GI50 (SW-620) of the same compound?
**A.** 32.3 µM (inactive)

**Q.** And the GI50 (EKVX)?
**A.** 96.6 µM (inactive)

**Q.** And the GI50 (HT-29)?
**A.** 62.2 µM (inactive)

**Q.** What about the GI50 (BT-549) of the same compound?
**A.** 49.3 µM (inactive)

**Q.** And the GI50 (OVCAR-8)?
**A.** 32.1 µM (inactive)

**Q.** What about the GI50 (SK-MEL-28) of the same compound?
**A.** 41.6 µM (inactive)

**Q.** And the GI50 (SNB-19)?
**A.** 60 µM (inactive)

**Q.** And the GI50 (LOX IMVI)?
**A.** 18.4 µM (inactive)

**Q.** And the GI50 (SK-OV-3)?
**A.** > 100 µM (inactive)

**Q.** And the GI50 (KM12)?
**A.** 61.8 µM (inactive)

**Q.** And the GI50 (A549)?
**A.** 37.9 µM (inactive)

**Q.** And the GI50 (HCC 2998)?
**A.** 37.3 µM (inactive)

**Q.** And the GI50 (HL-60)?
**A.** > 100 µM (inactive)

**Q.** What about the GI50 (Malme-3M) of the same compound?
**A.** 16.7 µM (inactive)

**Q.** What about the GI50 (DU-145) of the same compound?
**A.** 75.7 µM (inactive)

**Q.** And the GI50 (T47D)?
**A.** 37.8 µM (inactive)

**Q.** What about the GI50 (MDA-N) of the same compound?
**A.** 39.6 µM (inactive)

**Q.** And the GI50 (COLO 205)?
**A.** > 100 µM (inactive)

**Q.** What about the GI50 (MOLT-4) of the same compound?
**A.** 44.2 µM (inactive)

**Q.** What about the GI50 (SNB-75) of the same compound?
**A.** 93.5 µM (inactive)

**Q.** What about the GI50 (K562) of the same compound?
**A.** 27 µM (inactive)

**Q.** And the GI50 (UACC-62)?
**A.** 51.2 µM (inactive)

**Q.** What about the GI50 (MDA-MB-435) of the same compound?
**A.** 32.2 µM (inactive)

**Q.** And the GI50 (MDA-MB-231)?
**A.** 62.2 µM (inactive)

**Q.** And the GI50 (HCT-116)?
**A.** 38.4 µM (inactive)

**Q.** What about the GI50 (NCI-H522) of the same compound?
**A.** 22.3 µM (inactive)

**Q.** And the GI50 (HCT-15)?
**A.** 32.1 µM

**Q.** What about the GI50 (SR) of the same compound?
**A.** 37.2 µM (inactive)

**Q.** What about the GI50 (U-251) of the same compound?
**A.** 39.2 µM (inactive)

**Q.** And the GI50 (PC-3)?
**A.** 63.7 µM (inactive)

From ChEMBL document CHEMBL1201862, “PubChem BioAssay data set” (2004)
